# US20230263800A1, “COMPOSITIONS AND METHODS TO PROMOTE THYMIC FUNCTION” (Fred Hutchinson Cancer Center, priority 2020, published 2023)
# “Also recorded” adds a separate entry of the source. Where two headings read alike, the source gives them in different places.
# What was measured:
# Foxn1 in C9 (cTEC) cells = test: Foxn1 expression by qPCR in C9 cells; assay type: cell-based, mouse
# Experimental: (§1) FIGS. 7A, 7B. […] Graphs represent mean±SEM, each dot represents a biologically independent observation (n=3 independent experiments). *, p<0.05; **, p<0.01; ***p<0.001.
# (§2) FIGS. 18A-18G. Thymuses were harvested at d0, d1, d2, and d3 after TBI (550 cGy) and (18A) mitochondrial membrane potential, (18B) Reactive oxygen species (ROS) levels, and (18C) glutathione levels were measured in DP thymocytes and cTECs (n=4-7 mice from 1-2 experiments). (18D) Foxn1 expression in FACs-purified cTECs at d0, d4, and d7 after TBI; (18E) Intracellular Ca2+ levels were measured on whole thymus harvested at d0, d2, d4, and d7 post SL-TBI. (18F, 18G) Foxn1 expression levels were measured by qPCR in (18F) C9, and (18G) TE71 cells after treatment with Tunicamycin (5 ug/ml) or Thapsigargan (1 μg/ml). Graphs represent mean+/−SD.
# FIGS. 19A, 19B. (19A) C9s were treated with (19A) ATP and P2X7 antagonist or (19B) P2Y2 agonist or antagonist and FOXN1 expression was assessed by qPCR after 20 h. Graphs represent mean+/−SEM.
# (§3) Cell cultures. exEC were generated as previously described (Seandel et al., Proc Natl Acad Sci USA. 2008, 105(49):19288-19293). Cells were cultured in presence of ultrapure Zn sulfate monohydrate purchased from Alfa Aesar (Haverhill, Mass. #1113809) or sodium pyrythione (Sigma Aldrich, St. Louis, Mo. #H3261-1G). TC-G 1008 was used in cell cultures at a final concentration of 25 μM. Silencing of the zinc receptor Gpr39 was performed by electroporation using Nucleofector electroporation kit (VPI-1001, Lonza; Program M-003, Nucleofector 2b, Lonza), and the GPR39 siRNA Silencer Select (Thermo, Waltham, Mass.). Mouse C9 (cTEC) and TE-71 (mTEC) cells were kindly provided by A. Farr, University of Washington.
# PCR and Microarray. Reverse transcription-PCR was performed with iScript Clear gDNA cDNA synthesis kit (Bio Rad, Hercules, Calif.) on CFX96 (Bio Rad, Hercules, Calif.) with iTaq Universal SYBR Green (Bio Rad). Relative amounts of mRNA were calculated by the comparative AC(t) method or as relative expression. SYBR Green gene expression assays for qPCR, including Bmp4 (Mm00432087_m1), Foxn1 (Mm00433948_m1), beta-actin, Gpr39, Top1 were all purchased from Life Technologies (Carlsbad, Calif.) and Bio Rad (Hercules, Calif.). b-actin: synthesized by IDT, F: 5′-[…]-3′ (SEQ ID NO: 6), R: 5′-[…]-3′ (SEQ ID NO: 7). Top1: synthesized by IDT, sequences provided by PrimerBank, PrimerBank ID 6678399a1. Bmp4: Biorad qMmuCED0046239. Foxn1: Biorad qMmuCED0044924. Microarray data from CD45^− cells was analyzed on day 0, 4 and 7 as previously described (Wertheimer et al., Science Immunology. 2018, 3(19)) (GSE106982) and differential gene expression of Gpr39 was calculated.
# [1] = system: C57BL/6 mice given sublethal TBI; test: Thymic regeneration after sublethal total body irradiation (SL-TBI, 550 cGy); assay type: in vivo, mouse; details: for thymic regeneration (thymus cellularity): day 14
# Text: FIGS. 4A-4G. […] (4A, 4B) 6-8 week-old female C57BL/6 mice were fed a normal or ZD diet for 21 days at which point mice were given a sublethal dose of total body irradiation (TBI, 550 cGy). (4A) Total thymic cellularity at days 7 and 14 after TBI (n=10/treatment/timepoint across two independent experiments). (4B) Total number of CD45-EpCAM^+MHCII^+UEA1^loLy51^hi (cTECs) and CD45^− EpCAM^+MHCII^+UEA1^hi Ly51^lo (mTECs) at days 7 and 14 after TBI (n=10/treatment/timepoint across two independent experiments). (4C) 6-12 week-old female BALB.B mice were fed with normal or ZD diet for 21 days, at which point mice were given a lethal dose of TBI (900cGy) and 10×10^6 T cell-depleted bone marrow (BM) cells from 6-8 week-old C57BL/6. One cohort also received 2×10^6 T cells to induce graft versus host disease (GVHD); thymic cellularity was quantified on day 14 after allogeneic hematopoietic stem cell transplant (allo-HCT, n=5-6/group). (4D) 6-8 week-old female C57BL/6 mice were fed with normal or ZD diet for 21 days at which point mice were given 550 cGy TBI and total thymus cellularity quantified on day 14. […] (4E) Total thymic cellularity. (4F) Total number of cTECs and mTECs. (4G) Total number of Ki-67+ thymic endothelial cells (TECs). […]
# Bmp4 in exECs [2] = test: BMP4 protein by ELISA in exECs; assay type: cell-based, mouse
# Experimental: FIGS. 10A-10F. G-protein coupled receptor 39 (GPR39) expressed by thymic endothelial cells is the central mediator of Zn-centered regeneration. […] Bmp4 expression was measured by qPCR (n=6 combined from two independent experiments). (10B) GPR39 expression across subsets in the thymus by flow cytometry at baseline. […] (10C) Expression of GPR39 on cTECs, mTECs, ECs and fibroblasts at days 0, 4, and 7 after TBI. […] BM P4 was measured by ELISA.
# ERK1/2 = details: exECs stimulated with Zn
# Text: Flow cytometry, multidimensional analyses, and FACS sorting. For flow cytometry and cell sorting, surface antibodies against CD45 (30-F11), CD31 (390 or MEC13.3), CD90.2 (30-H12), TER-119 (TER-119), CD4 (RM4-5 or GK1.5), CD8 (53-6.7), TCRβ (H57-597), CD3 (145-2C11), CD44 (IM7), CD25 (PC 61.5), CD62L (MEL14), MHC-II IA/IE (M5/114.15.2), EpCAM (G8.8), Ly51 (6C3), CD11c (HL3), IL-7Ra (A7R34), CCR6 (140706), CD45.1 (A20), CD45.2 (104), ki-67 (16A8), and PDGFRa (APAS) were purchased from BD Biosciences (Franklin Lakes, N.J.), BioLegend (San Diego, Calif.) or eBioscience (San Diego, Calif.). Ulex europaeus agglutinin 1 (UEA-1), conjugated to FITC or Biotin, was purchased from Vector Laboratories (Burlingame, Calif.). GPR39 conjugated to FITC was purchased from Signalway Antibody (College Park, Md.). Red blood cell lysis was performed with ACK buffer (Thermo Scientific, Waltham, Mass.). Flow cytometry was performed on a Fortessa X50 (BD Biosciences, Franklin Lakes, N.J.) and cells were sorted on an Aria II (BD Biosciences) using FACSDiva (BD Biosciences, Franklin Lakes, N.J.). For intracellular cytokine or phosphoprotein analysis, cells were fixed and permeabilized using Fix Buffer I and Phospho-Perm Buffer III from BD Bioscience (Franklin Lakes, N.J.). Fluozin-3 AM was purchased from Thermo Fisher (Waltham, Mass.). Analysis was performed by FlowJo (Treestar Software, Ashland, Oreg.).
# [3] = system: mice given TCD allo-HCT from RAG2-GFP donors; details: ZnSO4 in drinking water, peripheral blood and spleen after HCT, day 53
# Experimental: FIGS. 12A-12D. […] (12A). […] (12B) Splenic T cells were analyzed for GFP expression on day 53 (n=4-5/group).
# Bmp4 in exECs [4] = test: Bmp4 expression by qPCR in exECs; assay type: cell-based, mouse; details: ZnSO4 50 and 100 μM, 24 hours
# BMP4 = system: BMP4
# Text: (§4) FIGS. 8A-8F. […] (8A) 6-8 week-old female C57BL/6 mice were fed a normal or ZD diet for 21 days at which point mice were given 550 cGy TBI. […] Levels of BMP4 were quantified by enzyme-linked immunoassay (ELISA) at day 10 after TBI (n=5-10/group from one independent experiment). […] Mice were maintained on Zn-supplemented drinking water for the duration of the study. (8B) BMP4 levels measured by ELISA at day 10 (n=9/group combined from three independent experiments). (8C) Endothelial cells (ECs) were fluorescence-activated cell sorting (FACS) purified at day 7 and Bmp4 expression was measured by qPCR (n=6/group combined from two independent experiments). […] Total thymus cellularity was quantified at day 10 after TBI (n=5/group from one independent experiment).
# (§5) ELISA and Western Blot. Cell culture or tissue lysates were prepared in RIPA buffer (Thermo, Waltham, Mass.) as previously described (Wertheimer et al., Science Immunology. 2018, 3(19)) and normalized by BCA assay (Thermo, Waltham, Mass.). BMP4 levels were quantified by ELISA (LSBio, Seattle, Wash.) and read on a Spark 10M plate reader (Tecan, Switzerland). Cortisol levels were measured with ELISA on peripheral blood (R&D systems, Minneapolis, Minn.).
# [5] = system: Foxn1 in TE-71 (mTEC) cells; test: Foxn1 expression by qPCR in TE-71 cells; assay type: cell-based, mouse
# Experimental: as §2
# PCR and Microarray. […] Bmp4: Biorad qMmuCED0046239. Foxn1: Biorad qMmuCED0044924.
# [6] = system: lineage-negative bone marrow (BM) co-cultured with OP9-DL1 cells; details: ZnSO4 10 μM added from day 0, read at day 30, versus control
# Text: Concatenated flow cytometry plots displaying CD4 and CD8 expression at day 30 (n=5 independent experiments).
# To confirm the importance of Zn on T cell maturation, lineage-negative bone marrow (BM) isolated from C57BL/6 mice were co-cultured on the OP9-DLL1 system, which is able to support T cell development in vitro (Schmitt et al., Nat Immunol. 2004, 5(4):410-417; and Holmes et al., Cold Spring Harb Protoc. 2009, 2009(2):pdb prot5156).
# OP9-DL1 cells were kindly provided by J. C. Zuniga-Pflucker, University of Toronto and cultured as previously described (Holmes et al., Cold Spring Harb Protoc. 2009, 2009(2):pdb prot5156) using lineage-negative BM (using a lineage depletion kit, Miltenyi Biotech, Germany). Flt-3L and IL-7 were purchased from Peprotech (Rocky Hill, N.J.).
# [7] = system: Bmp4 in endothelial cells (ECs); details: 300 mg/kg/day ZnSO4 21 days before TBI, ECs sorted at day 7
# Text: as §4
# PCR and Microarray. Reverse transcription-PCR was performed with iScript Clear gDNA cDNA synthesis kit (Bio Rad, Hercules, Calif.) on CFX96 (Bio Rad, Hercules, Calif.) with iTaq Universal SYBR Green (Bio Rad). Relative amounts of mRNA were calculated by the comparative AC(t) method or as relative expression. […] Microarray data from CD45^− cells was analyzed on day 0, 4 and 7 as previously described (Wertheimer et al., Science Immunology. 2018, 3(19)) (GSE106982) and differential gene expression of Gpr39 was calculated.
# [8] = 300 mg/kg/day ZnSO4 in drinking water for 21 days, Fluozin-3 and ICP-MS
# Experimental: FIGS. 9A-9G. […] (9A, 9B) 6-8 week-old female C57BL/6 mice were given 550 cGy TBI and levels of Zn were measured by inductively coupled plasma mass spectrometry (ICP-MS). (9A) Total thymic amounts of Zn from both intracellular and extracellular fractions of thymus (n=6/timepoint). (9B) Extracellular Zn was measured only in thymic supernatants and the ratio of extracellular to total thymic Zn was calculated (n=6/timepoint). […] Thymocytes were isolated either before or 48 hours after TBI and co-cultured with exECs. Bmp4 expression was measured by qPCR at 24 hours (n=3-4/group). […] Thymus cellularity was measured at day 28 after TBI (n=4-5/group). (9E) 6-8 week-old female C57BL16 mice were fed a normal or ZD diet for 21 days after which thymocytes were isolated by CD90+ magnetic separation. Intracellular Zn levels were measured by staining with Fluozin-3 and assessed by flow cytometry (n=5/group across two independent experiments).
# TE-71 (mTEC) cells = details: TE-71 cells, graded doses of ZnSO4, 24 h
# Experimental: as §1, §3, §5
# C9 (cTEC) cells = details: graded doses of ZnSO4, 24 h
# Experimental: as §1, §3, §5
compound,measurement,setting,value
Cc1ccc2c(c1)C=Cc1cc(C)ccc1C2c1cn(Cc2ccc(C(=O)Nc3nn[nH]n3)o2)c(=O)[nH]c1=S [AR-C 1182925XX],effect on P2Y2 agonist-induced Foxn1 expression,"Foxn1 in C9 (cTEC) cells; C9 cells, P2Y2 antagonist, 20 h",reversed
Nc1ncnc2c1ncn2[C@@H]1O[C@H](COP(=O)(O)OP(=O)(O)OP(=O)(O)O)[C@@H](O)[C@H]1O [ATP],Foxn1 expression,"Foxn1 in C9 (cTEC) cells; C9 cells, ATP, 20 h",potent inducer of FOXN1
same,thymic regeneration (thymus cellularity),[1]; ATP by intraperitoneal injection at d3 after SL-TBI (legend: 5 mg/kg bzATP),superior thymic regeneration; also recorded: enhancing thymus cellularity
Nc1[nH]nc2nnc(-c3c(-c4ccccc4)nn4ccccc34)cc12 [FR180204],BMP4 production,"Bmp4 in exECs [2]; ERK inhibitor FR180204 prior to ZnSO4 (100 μM), 24 hours",BMP4 production was abrogated
"O=c1ccn([C@@H]2O[C@H](COP(=O)([O-])OP(=O)([O-])OP(=O)([O-])OP(=O)([O-])Oc3ccccc3)[C@@H](O)[C@H]2O)c(=O)[nH]1.[Na+].[Na+].[Na+].[Na+] [MRS 2768, tetrasodium; [[(2R,3S,4R,5R)-5-(2,4-dioxopyrimidin-1-yl)-3,4-dihydroxyoxolan-2-yl]methoxy-oxidophosphoryl] [oxido-[oxido(phenoxy)phosphoryl]oxyphosphoryl] phosphate]",Foxn1 expression,Foxn1 in C9 (cTEC) cells,increase in Foxn1 expression
same,thymic regeneration (thymus cellularity),"[1]; MRS 2768 5 mg/kg IP at day 3 after 550 cGy TBI, 5 mg/kg",superior thymic regeneration; also recorded: enhancing thymus cellularity
same,cTEC numbers,"[1]; MRS 2768 5 mg/kg, d13 following TBI, 5 mg/kg",increased cTEC numbers; also recorded: expanding cTECs
"O=S(=O)([O-])[O-].[Zn+2] [ZnSO4, zinc sulphate]",phosphorylation of ERK1/2,ERK1/2,led to phosphorylation of ERK1/2
same,Foxn1 expression,"Foxn1 in C9 (cTEC) cells; C9 cells, 100 μM ZnSO4, 24 h",did not show any direct effect
same,GFP+ CD4+ and CD8+ lymphocytes (recent thymic emigrants),[3],higher levels of GFP+CD4+ and CD8+ lymphocytes
same,BMP4 protein,"Bmp4 in exECs [2]; ZnSO4, 48 hours",confirmed at the protein level
same,transcription of Bmp4,Bmp4 in exECs [4],dose-dependent increase
same,BMP4 levels in the thymus,"BMP4; 300 mg/kg/day ZnSO4 21 days before TBI without prior ZD, day 10",increased levels of BMP4
same,BMP4 levels in the thymus,"BMP4; ZD diet 21 days, 550 cGy TBI, 300 mg/kg/day ZnSO4 in drinking water from day 0, day 10",restored BMP4 levels
same,Foxn1 expression,"[5]; TE-71 cells, 100 μM ZnSO4, 24 h",did not show any direct effect
same,production of DP (CD4+CD8+) cells,[6],more robust production of DP
same,Bmp4 expression in purified ECs,[7],increased expression of Bmp4
same,intracellular Zn in thymocytes,[8],significantly increased levels of intracellular Zn
same,TEC proliferation,TE-71 (mTEC) cells,did not show any direct effect
same,TEC proliferation,C9 (cTEC) cells,did not show any direct effect
C/C=C(/C)C(=O)O[C@H]1C(C)=C2[C@H]([C@@H]1OC(=O)CCCCCCC)[C@@](C)(OC(C)=O)C[C@H](OC(=O)CCC)[C@@]1(O)[C@H]2OC(=O)[C@@]1(C)O [thapsigargan],effect on tunicamycin-induced Foxn1 expression,"Foxn1 in C9 (cTEC) cells; C9 cells, Thapsigargan 1 μg/ml",reversed
same,effect on tunicamycin-induced Foxn1 expression,"[5]; TE71 cells, Thapsigargan 1 μg/ml",reversed
tunicamycin,Foxn1 expression,"Foxn1 in C9 (cTEC) cells; C9 cells, Tunicamycin 5 ug/ml",induced Foxn1 expression
same,Foxn1 expression,"[5]; TE71 cells, Tunicamycin 5 ug/ml",induced Foxn1 expression
